System: 186277-243-T-J2-PDC complex spheroid growth, % test/control
Assay: Anticancer human tumor 186277-243-T-J2-PDC patient-derived colon adenocarcinoma cell line growth inhibition [Asc]
Settings: for IC50: curve of first compound; for viability, T/C: stronger effect = lower value; active means viability on the fitted dose curve at most 10% of control; inactive means the rest
Outline: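 Complex solid-tumor spheroids incorporating human endothelial and mesenchymal stem cells received single agents or combinations over half-log dilution ranges anchored to clinical Cmax.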
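Further: spheroids exposed to agents for 7 days.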
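Wherever viability, T/C is given: 100% = DMSO vehicle control wells.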

Cc1nc(N2CCC3(CC2)COC(C)C3N)c(CO)nc1Sc1ccnc(N)c1Cl (stereo not given) + CNC(C)C(=O)NC1CN(S(=O)(=O)c2cccc(S(=O)(=O)N3CCC4CCC(C(=O)NC(c5ccccc5)c5ccccc5)N4C(=O)C(NC(=O)C(C)NC)C3)c2)CCC2CCC(C(=O)NC(c3ccccc3)c3ccccc3)N2C1=O
> 3 µM: IC50 (second compound 0.01 µM) | IC50 (second compound 0.0316 µM) | IC50 (second compound 0.1 µM) | IC50 (second compound 0.316 µM) | IC50 (second compound 1 µM)
inactive: viability, T/C (second compound 0.01 µM, first compound 0.00949 µM) 106% | viability, T/C (second compound 0.01 µM, first compound 0.03 µM) 102% | viability, T/C (second compound 0.01 µM, first compound 0.0949 µM) 112% | viability, T/C (second compound 0.01 µM, first compound 0.3 µM) 93% | viability, T/C (second compound 0.01 µM, first compound 0.949 µM) 97.8% | viability, T/C (second compound 0.01 µM, first compound 3 µM) 106% | viability, T/C (second compound 0.0316 µM, first compound 0.00949 µM) 98.8% | viability, T/C (second compound 0.0316 µM, first compound 0.03 µM) 111% | viability, T/C (second compound 0.0316 µM, first compound 0.0949 µM) 107% | viability, T/C (second compound 0.0316 µM, first compound 0.3 µM) 91.6% | viability, T/C (second compound 0.0316 µM, first compound 0.949 µM) 104% | viability, T/C (second compound 0.0316 µM, first compound 3 µM) 104% | viability, T/C (second compound 0.1 µM, first compound 0.00949 µM) 107% | viability, T/C (second compound 0.1 µM, first compound 0.03 µM) 101% | viability, T/C (second compound 0.1 µM, first compound 0.0949 µM) 103% | viability, T/C (second compound 0.1 µM, first compound 0.3 µM) 97.7% | viability, T/C (second compound 0.1 µM, first compound 0.949 µM) 102% | viability, T/C (second compound 0.1 µM, first compound 3 µM) 119% | viability, T/C (second compound 0.316 µM, first compound 0.00949 µM) 96% | viability, T/C (second compound 0.316 µM, first compound 0.03 µM) 104% | viability, T/C (second compound 0.316 µM, first compound 0.0949 µM) 106% | viability, T/C (second compound 0.316 µM, first compound 0.3 µM) 103% | viability, T/C (second compound 0.316 µM, first compound 0.949 µM) 101% | viability, T/C (second compound 0.316 µM, first compound 3 µM) 100% | viability, T/C (second compound 1 µM, first compound 0.00949 µM) 112% | viability, T/C (second compound 1 µM, first compound 0.03 µM) 110% | viability, T/C (second compound 1 µM, first compound 0.0949 µM) 99.6% | viability, T/C (second compound 1 µM, first compound 0.3 µM) 102% | viability, T/C (second compound 1 µM, first compound 0.949 µM) 105% | viability, T/C (second compound 1 µM, first compound 3 µM) 101%

O=C(c1cc(Cc2n[nH]c(=O)c3ccccc23)ccc1F)N1CCN(C(=O)C2CC2)CC1 + Cc1c(S(C)(=O)=O)c(-c2cc(F)cc(N3CCN(c4ccc(NS(=O)(=O)c5ccc(NC(CCN6CCC(C(=O)OCCCP(=O)(O)O)CC6)CSc6ccccc6)c(S(=O)(=O)C(F)(F)F)c5)cc4)CC3)c2)c(-c2ccc(Cl)cc2)n1C(C)C
7.98 µM: IC50 (second compound 1 µM)
inactive: viability, T/C (second compound 0.1 µM, first compound 0.0316 µM) 96.9% | viability, T/C (second compound 0.1 µM, first compound 0.1 µM) 87.8% | viability, T/C (second compound 0.1 µM, first compound 0.316 µM) 99.3% | viability, T/C (second compound 0.1 µM, first compound 1 µM) 114% | viability, T/C (second compound 0.1 µM, first compound 3.16 µM) 103% | viability, T/C (second compound 0.1 µM, first compound 10 µM) 91.8% | viability, T/C (second compound 0.316 µM, first compound 0.0316 µM) 89.1% | viability, T/C (second compound 0.316 µM, first compound 0.1 µM) 101% | viability, T/C (second compound 0.316 µM, first compound 0.316 µM) 96.2% | viability, T/C (second compound 0.316 µM, first compound 1 µM) 104% | viability, T/C (second compound 0.316 µM, first compound 3.16 µM) 86.3% | viability, T/C (second compound 0.316 µM, first compound 10 µM) 65.8% | viability, T/C (second compound 1 µM, first compound 0.0316 µM) 99.7% | viability, T/C (second compound 1 µM, first compound 0.1 µM) 101% | viability, T/C (second compound 1 µM, first compound 0.316 µM) 96.2% | viability, T/C (second compound 1 µM, first compound 1 µM) 96.5% | viability, T/C (second compound 1 µM, first compound 3.16 µM) 86.7% | viability, T/C (second compound 1 µM, first compound 10 µM) 40.7% | viability, T/C (second compound 3.16 µM, first compound 0.0316 µM) 96% | viability, T/C (second compound 3.16 µM, first compound 0.1 µM) 93.5% | viability, T/C (second compound 3.16 µM, first compound 0.316 µM) 109% | viability, T/C (second compound 3.16 µM, first compound 1 µM) 93% | viability, T/C (second compound 3.16 µM, first compound 3.16 µM) 60.5% | viability, T/C (second compound 3.16 µM, first compound 10 µM) 24% | viability, T/C (second compound 10 µM, first compound 0.0316 µM) 92.6% | viability, T/C (second compound 10 µM, first compound 0.1 µM) 95.1% | viability, T/C (second compound 10 µM, first compound 0.316 µM) 96.5% | viability, T/C (second compound 10 µM, first compound 1 µM) 88.9% | viability, T/C (second compound 10 µM, first compound 3.16 µM) 67.6% | viability, T/C (second compound 10 µM, first compound 10 µM) 17.9%
> 10 µM: IC50 (second compound 0.1 µM) | IC50 (second compound 0.316 µM)
4.74 µM: IC50 (second compound 10 µM)
4.39 µM: IC50 (second compound 3.16 µM)

Reference: PubChem BioAssay AID1963426 (Molecular Pharmacology Branch, DTP, NCI, 2024)
